Legend:
Format in all cases: cell-based, human
HepG2 hepatoma cell = experiment: MTT anti-proliferative assay, HepG2; conditions: MTT, 48 h; read-out: IC50 HepG-2
Method in brief: (§1)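 Anti-proliferative effect is measured with the MTT assay, which reports inhibition of net cell growth. Cells come from ATCC, are maintained in DMEM with FBS and are seeded into 96-well plates before treatment.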

L-02 normal liver cell = experiment: MTT assay, L-02 normal cells; conditions: 48 h
Method in brief: as §1

[1] = tested on: MCF-10A normal breast cell; experiment: MTT assay, MCF-10A normal cells; conditions: 48 h
Method in brief: as §1

[2] = tested on: BEL-7402 liver cancer cell; experiment: MTT anti-proliferative assay, BEL-7402; conditions: MTT, 48 h
Method in brief: as §1

MCF-7 breast cancer cell = experiment: MTT anti-proliferative assay, MCF-7; conditions: MTT, 48 h
Method in brief: as §1

[3] = tested on: Raji B lymphoblastoid cell; experiment: MTT anti-proliferative assay, Raji; conditions: MTT, 48 h; read-out: IC50 Raji
Method in brief: as §1

[4] = tested on: diffuse large B-cell lymphoma SU-DHL-10 cell; experiment: MTT anti-proliferative assay, SU-DHL-10; conditions: MTT, 48 h; read-out: IC50 SU-DHL-10
Method in brief: as §1

AGS gastric cancer cell = experiment: MTT anti-proliferative assay, AGS; conditions: MTT, 48 h
Method in brief: as §1

[5] = tested on: MGC-803 late stage differentiation gastric cancer cell; experiment: MTT anti-proliferative assay, MGC-803; conditions: for IC50: MTT, 48 h
Method in brief: as §1

[6] = tested on: HeLa cervical cancer cell; experiment: MTT anti-proliferative assay, HeLa; conditions: MTT, 48 h
Method in brief: as §1

[7] = tested on: HCT116 colectal cancer cell; experiment: MTT anti-proliferative assay, HCT116; conditions: for IC50: MTT, 48 h, read-out: IC50 HCT-116
Method in brief: as §1

A549 lung cancer cell = experiment: MTT anti-proliferative assay, A549; conditions: MTT, 48 h
Method in brief: as §1

[8] = tested on: SGC-7901 early differentiation gastric cancer cell; experiment: MTT anti-proliferative assay, SGC-7901; conditions: MTT, 48 h
Method in brief: as §1

| SMILES | IC50 (HepG2 hepatoma cell) | IC50 (L-02 normal liver cell) | IC50 [1] | IC50 [2] | IC50 (MCF-7 breast cancer cell) | IC50 [3] | IC50 [4] | IC50 (AGS gastric cancer cell) | IC50 [5] | IC50 [6] | SI (selectivity index), IC50 (L-02)/IC50 (HCT-116) [7] | IC50 [7] | IC50 (A549 lung cancer cell) | IC50 [8] | SI (selectivity index), IC50 (L-02)/IC50 (MGC-803) [5] |
| --- | --- | --- | --- | --- | --- | --- | --- | --- | --- | --- | --- | --- | --- | --- | --- |
| CCN(CC)c1ccc(/C=C(\C#N)c2ccc(C(F)(F)F)cc2)cc1 [Compound 1f2b] | > 100 µM | > 100 µM | > 100 µM | > 100 µM | > 100 µM | > 100 µM | > 100 µM | > 100 µM | > 100 µM | > 100 µM | > 3.0 | 33 ± 5.8 µM | > 100 µM | > 100 µM |  |
| N#C/C(=C\c1ccccc1)c1ccc(C(F)(F)F)cc1 [Compound 1f2c] | > 100 µM | > 100 µM | > 100 µM | > 100 µM | > 100 µM | > 100 µM | > 100 µM | > 100 µM | > 100 µM | > 100 µM |  | > 100 µM | > 100 µM | > 100 µM |  |
| N#C/C(=C\c1ccc(F)cc1)c1ccc(C(F)(F)F)cc1 [Compound 1f2d] | > 100 µM | > 100 µM | > 100 µM | > 100 µM | > 100 µM | > 100 µM | > 100 µM | > 100 µM | 51.9 ± 2.1 µM | > 100 µM |  | > 100 µM | > 100 µM | > 100 µM | > 1.9 |
| N#C/C(=C\c1ccc(Cl)cc1)c1ccc(C(F)(F)F)cc1 [Compound 1f2e] | > 100 µM | > 100 µM | > 100 µM | > 100 µM | > 100 µM | > 100 µM | > 100 µM | > 100 µM | > 100 µM | > 100 µM |  | > 100 µM | > 100 µM | > 100 µM |  |
| N#C/C(=C\c1ccc(Br)cc1)c1ccc(C(F)(F)F)cc1 [Compound 1f2f] | > 100 µM | > 100 µM | > 100 µM | > 100 µM | > 100 µM | > 100 µM | > 100 µM | > 100 µM | > 100 µM | > 100 µM |  | > 100 µM | > 100 µM | > 100 µM |  |

Source: paper PMC11071649, “Synthesis and Selective Anticancer Activity Evaluation of 2-phenylacrylonitrile Derivatives as Tubulin Inhibitors” (Current Medicinal Chemistry, 2024)
